Source: ChEMBL document CHEMBL1201862, “PubChem BioAssay data set” (2004)
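Growth conditions: 96-well plates. Treatment: test compound, 48 hours, 5 concentrations. Analysis: linear interpolation between bracketing concentrations; unreached endpoints set to highest concentration. The concentration for 50% growth inhibition is given as GI50.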 Calls of active or inactive are those of the source. Rule as the data show it: active = GI50 up to about 1.1 µM and inactive = higher.

Key:
Test in all cases: NCI tumour cell line growth inhibition, 48 h
BT-549 = test system: BT-549
XF498 = test system: XF498
DMS-273 = test system: DMS-273
DMS-114 = test system: DMS-114
HOP-18 = test system: HOP-18
KM-20L2 = test system: KM-20L2
SNB-78 = test system: SNB-78
LXFL 529 = test system: LXFL 529
RXF 631 = test system: RXF 631

SMILES: N#CC12COC3(CCCCC3C1(C#N)C#N)OC2=N (stereo unspecified)
- GI50 (BT-549): 15.4 µM (inactive)

SMILES: Nc1nc(N)c2nn(-c3ccc(C(=O)O)cc3)nc2n1
- GI50 (BT-549): > 100 µM (inactive)

SMILES: O=C1c2ccccc2/N=C(/c2cc3c(cc2Cl)Sc2nccn2S3(=O)=O)OS(=O)(=O)N1c1ccccc1
- GI50 (BT-549): 17.8 µM (inactive)

SMILES: CCC(C)C(=O)O[C@H]1C(=O)O[C@@H]2C[C@H]3C(C)=CC(=O)[C@@H](O)[C@]3(C)[C@H]3[C@@H](O)[C@H](O)[C@@]4(C)OC[C@]32[C@@H]14 (stereo partly specified)
- GI50 (XF498): 0.0208 µM (active)
- GI50 (DMS-273): 0.019 µM (active)
- GI50 (DMS-114): 0.0152 µM (active)
- GI50 (HOP-18): 0.158 µM (active)
- GI50 (KM-20L2): 0.0468 µM (active)
- GI50 (SNB-78): 0.0323 µM (active)
- GI50 (LXFL 529): 0.0103 µM (active)

SMILES: CN(C)c1ccc(C=c2c3ccccc3n3c2cc(-c2ccc(Cl)cc2)[n+]3C)cc1
- GI50 (BT-549): 0.201 µM (active)

SMILES: COc1cc(C2c3cc4c(cc3OC(NNC(N)=S)C2C)OCO4)cc(OC)c1OC (stereo unspecified)
- GI50 (BT-549): 0.804 µM (active)

SMILES: CN1CCOC1(C)c1ccccc1 (stereo unspecified)
- GI50 (BT-549): > 100 µM (inactive)

SMILES: COc1ccc(C(=O)Nc2ccc(O)c(=O)cc2)cc1
- GI50 (BT-549): 38.5 µM (inactive)

SMILES: CC1NC(/C(=C/c2ccccc2O)NC(=O)c2ccccc2)OC1=O (stereo unspecified)
- GI50 (BT-549): > 50 µM (inactive)

SMILES: Cc1nc2ccccc2c(=O)n1NC(=S)Nc1ccccc1
- GI50 (DMS-273): > 100 µM (inactive)
- GI50 (DMS-114): 71.1 µM (inactive)
- GI50 (HOP-18): > 100 µM (inactive)
- GI50 (LXFL 529): > 100 µM (inactive)

SMILES: N#CC(C(=O)/C(=N/N)C(C#N)c1ccc(Cl)cc1)c1ccc(Cl)cc1 (stereo unspecified)
- GI50 (XF498): 57.3 µM (inactive)
- GI50 (DMS-114): > 100 µM (inactive)
- GI50 (HOP-18): > 100 µM (inactive)
- GI50 (RXF 631): > 100 µM (inactive)
- GI50 (KM-20L2): > 100 µM (inactive)
- GI50 (SNB-78): > 100 µM (inactive)
- GI50 (LXFL 529): > 100 µM (inactive)

SMILES: Cn1c2ccccc2n2c3ccccc3c3nnc(N)c-3c12
- GI50 (BT-549): 2.25 µM (inactive)

SMILES: Cc1nc2sccn2c1C(=O)NNC(N)=S
- GI50 (DMS-273): > 100 µM (inactive)
- GI50 (DMS-114): > 100 µM (inactive)
- GI50 (HOP-18): > 100 µM (inactive)
- GI50 (KM-20L2): > 100 µM (inactive)
- GI50 (LXFL 529): > 100 µM (inactive)

SMILES: O=c1[nH]nc(Cc2ccccc2)n1/N=C\c1ccccc1
- GI50 (BT-549): > 100 µM (inactive)

SMILES: CCOc1c2ccsc2c(OCC)c2ccsc12
- GI50 (BT-549): > 28.8 µM (inactive)

SMILES: CC(=O)N1NC(c2ccccc2)=NC(=O)C1c1cc(C)c(O)c(C)c1 (stereo unspecified)
- GI50 (BT-549): 23 µM (inactive)

SMILES: O=C1COC(c2ccccc2O)=NN1CCCN1CCCC1
- GI50 (BT-549): > 100 µM (inactive)

SMILES: C=C(C)CC1=C(OCC)C(OC)(OCC)C1=O (stereo unspecified)
- GI50 (BT-549): 40.3 µM (inactive)

SMILES: CCOc1ncnc2ccc(Cl)c(I)c12
- GI50 (XF498): 45.4 µM (inactive)
- GI50 (DMS-273): > 100 µM (inactive)
- GI50 (DMS-114): 45.1 µM (inactive)
- GI50 (KM-20L2): > 100 µM (inactive)
- GI50 (LXFL 529): 81.1 µM (inactive)

SMILES: Clc1ccccc1C1SCc2nc3ccccc3n21 (stereo unspecified)
- GI50 (XF498): 30.3 µM (inactive)
- GI50 (HOP-18): < 0.01 µM (active)
- GI50 (SNB-78): 17.1 µM (inactive)
- GI50 (LXFL 529): 26.4 µM (inactive)
